Assay results taken from patent publication US20020138856A1, “Compositions and methods useful for treatment of depressive disorder based on an animal model” (Northwestern University, priority 1998, published 2002).
Entries after “also recorded” stand apart in the source; their conditions may differ.

Assays:
[1] = tested on: WKY rats; settings: chronic and subacute treatment (three times per day between first and third swim); cited from earlier work
[2] = tested on: WLI rats; test: Forced swim test (FST) immobility before and after drug administration, WLI rats; format: in vivo, rat
From the text: (§1) FIG. 6 is a graph depicting the immobility in the forced swim test of 14 week-old animals before and after administration of either desipramine, fluoxetine, or water in WMI and WLI animals. Shaded squares and circles indicate immobility after treatment, unshaded squares and circles indicate immobility before treatment, squares indicate WMI animals, and circles indicate WLI animals.
(§2) The main test of behavior in the rats of the invention is the FST. The general parameters governing this test are as follows, it being understood that variations of the test are permissible within acceptable bounds. The test utilizes a glass water tank 30 cm in diameter and 45 cm tall wherein the water level is 15 cm from the top and the water temperature is 25° C. The procedure for the test is adapted from Porsolt et al. and Detke et al., as described in Detke et al., 1995, Psychopharm. 121:66-72). Rats are individually placed in the water tank for 15 minutes and are then removed from the tank and returned to their cages. […] This 5 minute test session is recorded on videotape. The performance of the rat on the tape is analyzed and subsequently scored using the scoring system developed by Detke et al. (1995, Psychopharm. 121:66-72) by a trained observer, who is unaware as to the various treatment conditions of the rats. […] The following behaviors are recorded: immobility, swimming, and climbing. The rats are scored at 5 second intervals, thus, there are 12 intervals per minute sampled. […] By way of example, if a rat was scored as immobile at 13 of the […], the FST score would be 13. […]
(§3) The WMI and WLI rats of the invention are useful for screening compounds effective for modulation, preferably, alleviation of depression and other behavioral and depressive disorders. […] WMI and WLI rats are administered a test compound or a placebo at a dosage, a route of administration and for a period of time which is determined by the artisan skilled in such procedures, following standard protocols such as those described, for example, in Remington's Pharmaceutical Sciences, Mack Publishing Co., Easton, Pa., 1985. […]

[3] = tested on: WMI rats; test: Forced swim test (FST) immobility before and after drug administration, WMI rats; format: in vivo, rat; settings: for effect on alleviating depression (FST immobility): desipramine administered three times within 24 hours
From the text: as §1, §2, §3

Q: Which “effect on depressive behavior (immobility, struggling in forced swim test)” value [1] does the source give for `CNCCCN1c2ccccc2CCc2ccccc21` [Desipramine, desipramine] here?
A: Its value is “decreased the depressive behavior”.

Q: What about the “effect on alleviating depression (FST immobility)” value (“effect on alleviating depression” below) [2] of the same compound?
A: The value was “do not respond; also recorded: resistant to treatment”.

Q: What about the “immobility time in the forced swim test after administration” value ([2]; 14 week-old, before treatment about nine 5-second intervals, change not significant, FIG. 6) of the same compound?
A: Its value is “about six”.

Q: What about the “immobility time in the forced swim test after administration” value ([3]; 14 week-old, before treatment about nineteen 5-second intervals, FIG. 6) of the same compound?
A: The value was “about five”.

Q: What about the “effect on alleviating depression” value [3] of the same compound?
A: Its value is “responsive; also recorded: effectively alleviated depression”.

Q: With `CNCCC(Oc1ccc(C(F)(F)F)cc1)c1ccccc1` (centres unmarked) [Fluoxetine, fluoxetine] as the compound, how does the “effect on alleviating depression” value [2] read?
A: The value was “virtually no effect”.

Q: And the “effect on alleviating depression” value [3]?
A: The value was “virtually no effect”.

Q: For `CN(C)CCCN1c2ccccc2CCc2ccccc21` [imipramine], which “effect on depressive behavior (immobility, struggling in forced swim test)” value [1] is on record?
A: Its value is “decreased the depressive behavior”.
